Source: patent US12264339B2, “Compositions and methods involving engineered P27” (THE REGENTS OF THE UNIVERSITY OF CALIFORNIA, priority 2018, dated 2025)

Experiments:
[1] = test system: Rb (771-928), FoxM1 (526-748), histone H1; test: 32P-ATP kinase assay of protein complexes on substrates (FIG. 1A); type: biochemical; details: 0.5 μM complex, 20 μM substrate, 250 μM ATP, 30 minutes
Procedure: The phosphorylation activity of Cdk4 in various complexes was tested using different substrates.
The substrates used in the kinase assays were the C-terminal domain of the retinoblastoma protein (Rb (771-928); SEQ ID NO: 62), the transactivation domain of FoxM1 (FoxM1 (526-748); SEQ ID NO: 64), and full-length histone H1 (SEQ ID NO: 65).

[2] = Steady-state kinetic assays, initial rate of phosphorylation vs ATP concentration (FIGS. 1B and 1C); type: biochemical; details: summary of kinetic results, FIG. 1C

Row | Substance | phosphorylation activity toward substrates [1] | ATP substrate capture [2]
1 | Cdk4-CycD dimeric complex: Cdk4-CycD1 dimeric complex lacking p27; covers complexes (i) and (ii) | high phosphorylation activity specifically for Rb | –
2 | engineered p27 with Y74E, Y88E, and Y89E-Cdk4-CycD1 trimeric complex: trimeric complex of p27 Y74E/Y88E/Y89E, Cdk4 and CycD1; covers complexes (vii) and (viii) | greater activity toward FoxM1 and histone 1 | enhances ATP substrate capture
